Experimental data published in patent US6281250A, “Retinyl ethers, derivatives and analogues and inhibition of breast carcinogenesis” (Southern Research Institute, priority 1999, dated 2001).

How the values were obtained:
[1] = tested on: MNU-induced mammary cancer; test: 180-day study of RTMBE for suppression of MNU-induced mammary carcinogenesis (Expt. 3); assay type: in vivo, rat (female Sprague-Dawley); conditions: second, confirmatory experiment; 2 mmol/kg of diet, 180 days
in vivo = test: in vivo
Description: Toxicological evaluations involving measurement of body weights and observations of clinical signs characteristic of retinoid toxicity were accomplished as previously described (Lin et al., 1996).
RTMBE and two of its analogues, together with RME and RPE, were selected for estimation of their toxicities to mice when administered during 28-29 days by gavage in corn oil (Table 8). Mice were evaluated for changes in body weight and for signs of clinical retinoid toxicity (hypervitaminosis A) including alopecia, scaly skin, and limping. In the first experiment, these retinyl ethers were given at equimicromolar doses at three dose levels. The retinyl benzyl ethers (RTMBE, 3c, and 3e) were then tested at higher doses in a second experiment.

[2] = biological target: T1, cellular retinol-binding protein (CRBP) (Rattus norvegicus, UniProt P02696); test: Binding to cellular retinol-binding protein (CRBP): inhibition of [3H]retinol binding, sucrose density-gradient sedimentation
T1 construct: portions of rat testes cytosol (1 mg protein) were incubated; from tissue; host or cells: rat testes cytosol
T1 sequence (P02696 1-135): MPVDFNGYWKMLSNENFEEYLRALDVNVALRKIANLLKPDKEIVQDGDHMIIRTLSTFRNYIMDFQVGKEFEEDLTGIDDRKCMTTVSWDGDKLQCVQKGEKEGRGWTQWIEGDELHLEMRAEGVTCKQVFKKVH
Description: Binding affinities of the retinyl ethers for CRBP were determined by sucrose, density-gradient, sedimentation analysis as described before (Sani et al., 1980). Briefly, portions of rat testes cytosol (1 mg protein) were incubated with [^3 H]retinol (50 pmol) in the presence or absence of a 150-fold molar excess of unlabeled retinol or the test retinoids. The preparations after dialysis were analyzed by 5-20% sucrose density gradient sedimentation. For measuring the competitive binding of the unlabeled retinoids, inhibition of [^3 H]retinol binding to CRBP by unlabeled retinol is regarded as 100%. The mean and standard deviation calculated from the relative inhibitions obtained from multiple determinations were used as the relative binding affinities of the various retinyl ethers.
The group of retinyl benzyl ethers has now been evaluated for binding to CRBP. Binding to CRBP, as defined for Table I, at approximately 60% or higher was rated as strong; at 40-60%, as moderate; at 20-40%, as low.
^a Per cent inhibition of binding of tritiated retinol to CRBP by a
150-fold molar excess of the unlabelled test retinoid (Sani et al., 1980,

[3] = tested on: NADPH-requiring enzymes in rat liver microsomes; test: Conversion of retinyl ethers to retinol by rat liver microsomal enzymes; assay type: in vitro ADME; conditions: in vitro
Description: Because it was postulated, as stated above, that new retinyl ethers might not be converted by mircrosomal oxidases to retinol, RTMBE and 3a-i were tested in vitro in the same way.

[4] = Stability of retinyl ethers in storage and in solution; assay type: physicochemical
[5] = 7 days, 25.5±1.5° C., protected

With COc1cc(COC/C=C(C)/C=C/C=C(C)/C=C/C2=C(C)CCCC2(C)C)cc(OC)c1OC [Compound 2, Retinyl 3,4,5-Trimethoxybenzyl Ether] the “reduction of adenocarcinoma formation, compared with retinyl acetate” value [1] was “somewhat more effectively than retinyl acetate”, the NOAEL (in vivo; mouse, in vivo, po) was 249 mg/kg/day and the “Toxic Dose” value (in vivo; oral gavage in corn oil, 28-29 days) was greater than 249 mg/kg day. The “clinical toxicity (alopecia, scaly skin, limping)” value (in vivo; oral gavage, up to highest dose (RTMBE and RMoBE-4: Expt. 2)) was “No evidence of clinical toxicity”, the “Binding to CRBP, rating” value ([2]; 150-fold molar excess) was “strong or moderate binding” and the “binding to CRBP, in words” value ([2]; 150-fold molar excess) was “bind to CRBP”. For the same molecule, the “Percent Inhibition of [3H] Retinol Binding (CRBP Assay)” value ([2]; 150-fold molar excess of unlabelled test retinoid, rat testes cytosol) was 66 ± 12%, the conversion to retinol [3] was “not detectable” and the stability on storage ([4]; 5 years at -20° C., inert atmosphere) was “unchanged”. The “stability in DMSO” value [4, 5] was “changed very little”, the “stability in absolute ethanol” value [4, 5] was “practically unchanged” and the remaining at 43830 h ([4]; inert atmosphere storage, 5 years at -20° C., inert atmosphere, read-out: HPLC on re-analysis after storage) was 99.2%.
